In patent publication US9434745B2, “7-oxo-thiazolopyridine carbonic acid derivatives and their use in the treatment, amelioration or prevention of a viral disease” (Savira Pharmaceuticals GmbH, priority 2012, dated 2016):

system: influenza A virus (IAV) A/Aichi/2/68 (H3N2); assay: Cytopathic effect (CPE) assay; assay type: cell-based; conditions: @ 50 μM, MDCK cells, 48 hrs, read-out: CPE % reduction

Question: For `O=C(O)c1cn(Cc2ccccc2-c2ccccc2)c2nc(NC3CCCC3)sc2c1=O`, which inhibition at 50 µM is on record?
Answer: Its inhibition at 50 µM is 70%.

Question: Which inhibition at 50 µM does the source give for `O=C(O)c1cn(Cc2ccccc2-c2ccccc2)c2nc(NCc3ccccc3)sc2c1=O` here?
Answer: Its inhibition at 50 µM is 68%.

Question: For `O=C(O)c1cn(Cc2ccccc2-c2ccccc2)c2sc(N3CCCCC3)nc2c1=O`, which inhibition at 50 µM is on record?
Answer: The inhibition at 50 µM was 83%.

Question: For `CNC(=O)c1cn(Cc2ccccc2-c2ccccc2)c2sc(NCc3ccccc3)nc2c1=O`, which inhibition at 50 µM is on record?
Answer: The inhibition at 50 µM was 41%.

Question: With `O=C(O)c1cn(Cc2ccccc2-c2ccc(Cl)cc2)c2sc(O)nc2c1=O` as the compound, how does the inhibition at 50 µM read?
Answer: The inhibition at 50 µM was 63%.

Question: Which inhibition at 50 µM does the source give for `COc1ccc(S(=O)(=O)Nc2nc3c(=O)c(C(=O)O)cn(Cc4ccc(Cl)cc4-c4ccccc4)c3s2)cc1` here?
Answer: The inhibition at 50 µM was 67%.

Question: For `CCOC(=O)c1cn(Cc2ccccc2-c2ccccc2)c2sc(SC)nc2c1=O`, which inhibition at 50 µM is on record?
Answer: Its inhibition at 50 µM is 35%.

Question: Which inhibition at 50 µM does the source give for `Cc1[nH]c2ncnn2c(=O)c1CC(=O)O` here?
Answer: Its inhibition at 50 µM is 28%.

Question: For `Nc1cc2n(C(=O)C3(c4ccccc4)CCCC3)cc(C(=O)O)c(=O)n2n1` [drawing 237], which inhibition at 50 µM is on record?
Answer: Its inhibition at 50 µM is 18%.

same assay, conditions: MDCK cells, 48 hrs

Question: For `N#Cc1ccc(S(=O)(=O)Nc2nc3c(=O)c(C(=O)O)cn(Cc4ccccc4-c4ccccc4)c3s2)cc1`, which IC50 is on record?
Answer: Its IC50 is 18 µM.

system: not given; assay: not given; conditions: not given

Question: With `O=C(O)c1cn(CCc2ccc(Cl)cc2)c2cc(C3CC3)nn2c1=O` as the compound, how does the melting point read?
Answer: The melting point was 220 to 225 °C.

Question: Which melting point does the source give for `O=C(O)Cc1c[nH]c2cc(C(F)(F)F)nn2c1=O` here?
Answer: The melting point was 320 to 324 °C.

Question: Which melting point does the source give for `O=C(NCCc1ccc(Cl)cc1)c1cc2[nH]cc(C(=O)O)c(=O)n2n1` here?
Answer: Its melting point is greater than 300 °C.

Question: Which melting point does the source give for `CCOC(=O)c1c[nH]c2nc(NCc3ccccc3)nn2c1=O` here?
Answer: The melting point was 275 to 278 °C.

Question: Which melting point does the source give for `CCOC(=O)c1c[nH]c2nc(Nc3ccc(C)c(Cl)c3)nn2c1=O` here?
Answer: The melting point was greater than 340 °C.

Question: For `CCOC(=O)Cc1c[nH]c2nc(Nc3ccc(OC(C)C)cc3)nn2c1=O`, which melting point is on record?
Answer: Its melting point is 235 to 240 °C.

Question: Which melting point does the source give for `CCOC(=O)c1cn(Cc2ccccc2)c2cc(C3CC3)nn2c1=O` here?
Answer: Its melting point is 160 to 165 °C.

Question: For `CCOC(=O)c1cn(CCc2ccc(Cl)cc2)c2cc(C3CC3)nn2c1=O`, which melting point is on record?
Answer: The melting point was 190 to 195 °C.

Question: Which melting point does the source give for `CCOC(=O)c1cn(CCc2ccc(OC)cc2)c2cc(C3CC3)nn2c1=O` here?
Answer: The melting point was 160 to 165 °C.

Question: For `CCOC(=O)c1cn(CCCc2ccccc2)c2cc(C3CC3)nn2c1=O`, which melting point is on record?
Answer: Its melting point is 150 to 155 °C.

Question: With `CCOC(=O)c1cn(Cc2ccccc2)c2cc(C3CCCC3)nn2c1=O` as the compound, how does the melting point read?
Answer: The melting point was 148 to 150 °C.

Question: With `CCOC(=O)c1cn(CCc2ccccc2)c2cc(C3CCCC3)nn2c1=O` as the compound, how does the melting point read?
Answer: Its melting point is 162 to 164 °C.

Question: Which melting point does the source give for `CCOC(=O)Cc1c[nH]c2cc(-c3ccccc3)nn2c1=O` here?
Answer: The melting point was 245 to 250 °C.

Question: Which melting point does the source give for `CCOC(=O)Cc1cn(C)c2cc(C3CC3)nn2c1=O` here?
Answer: Its melting point is 147 to 150 °C.

Question: Which melting point does the source give for `CCOC(=O)c1c[nH]c2cc(C(=O)NC3CCN(Cc4ccccc4)CC3)nn2c1=O` here?
Answer: Its melting point is 264 to 266 °C.

system: MDCK cells; assay: Cytotoxicity in uninfected treated cells (CellTiter-Glo) within the CPE assay; assay type: cell-based, canine; conditions: at 50 μM
Procedure: After removal of the culture medium and one washing step with PBS, virus and compound were added together to the cells. In the wells used for cytotoxicity determination (i.e. in the absence of viral infection), no virus suspension was added. Instead, infection medium was added. Each treatment was conducted in two replicates. After incubation at 37° C., 5% CO2 for 48 hrs, each well was observed microscopically for apparent cytotoxicity, precipitate formation, or other notable abnormalities. Then, cell viability was determined using CellTiter-Glo luminescent cell viability assay (Promega). The supernatant was removed carefully and 65 μl of the reconstituted reagent were added to each well and incubated with gentle shaking for 15 min at room temperature. Then, 60 μl of the solution was transferred to an opaque plate and luminescence (RLU) was measured using Synergy HT plate reader (Biotek).
Relative cell viability values of uninfected-treated versus uninfected-untreated cells were used to evaluate cytotoxicity of the compounds. Substances with a relative viability below 80% at the tested concentration were regarded as cytotoxic and retested at lower concentrations.

Question: For `CSC1=NC2C(=O)C(C(=O)O)=CN(Cc3ccccc3-c3ccccc3)C2S1` (stereo not shown), which “Cytotoxicity (relative viability below 80% regarded as cytotoxic)” value is on record?
Answer: The value was “Toxic”.

Question: Which “Cytotoxicity (relative viability below 80% regarded as cytotoxic)” value does the source give for `O=C(O)c1cn(Cc2ccccc2-c2ccccc2)c2sc(NC3CCCC3)nc2c1=O` here?
Answer: Its value is “toxic”.

biological target: T1, influenza A virus (IAV) PA-Nter fragment (amino acids 1-209) (Influenza A virus, UniProt P31343); assay: FRET endonuclease activity assay; assay type: biochemical; conditions: not given
T1 construct: PA-Nter fragment (amino acids 1-209); made in house

Question: With `CCOC(=O)c1cn(Cc2ccccc2-c2ccccc2)c2sc(SC)nc2c1=O` as the compound, how does the “FRET (result in words)” value read?
Answer: The value was “inactive”.

same assay, conditions: from initial reaction velocities (v0) of RNA substrate cleavage

Question: For `CSC1=NC2C(=O)C(C(=O)O)=CN(Cc3ccccc3-c3ccccc3)C2S1` (stereo not shown), which IC50 is on record?
Answer: Its IC50 is 12 µM.

Question: Which IC50 does the source give for `O=C(O)c1cn(Cc2ccccc2-c2ccccc2)c2sc(NC3CCCC3)nc2c1=O` here?
Answer: Its IC50 is 5.5 µM.

Question: Which IC50 does the source give for `N#Cc1ccc(S(=O)(=O)Nc2nc3c(=O)c(C(=O)O)cn(Cc4ccccc4-c4ccccc4)c3s2)cc1` here?
Answer: Its IC50 is 2.2 µM.
